By logD is commonly meant lipophilicity at a set pH, counting ionised and neutral species. By Ki is commonly meant a measure of affinity in units of concentration, obtained from inhibition or displacement. The term Papp denotes the rate of passage across a membrane or cell layer, normalised by area and donor concentration. The IC50 is the concentration that gives 50% inhibition. Read a high IC50 as weaker potency in that assay. Usually EC50 stands for the concentration that produces a half-maximal response.

Series [1] can be described thus: logD. In kind it is physicochemical.
The target in series [2] is MRCKα (Homo sapiens, UniProt Q5VT25). The experiment in a line: IMAP fluorescence polarization kinase assay, MRCKα. In kind it is biochemical. Conditions: calculated with Cheng-Prusoff equation. The method, then:
(§1) MRCKα, MRCKβ, ROCK1 and ROCK2 assays were performed using an IMAP fluorescence polarization assay format (Molecular Devices Inc.). 8–12 nM of each kinase (Life Technologies) was incubated for 60 min at room temperature with 100 nM FAM-S6-ribosomal protein derived peptide (synthesized by Alta Biosciences, University of Birmingham UK) in the presence of 1 μM ATP and 0.5 mM MgCl2 in 20 mM Tris buffer (pH 7.4) containing 0.01% Tween-20 and 1 mM DTT (MRCKα and β); or 1 μM ATP, 10 mM MgCl2 in 20 mM Tris buffer (pH 7.5) containing 0.25 mM EGTA 0.01% Triton X-100 and 1 mM DTT (ROCK1 and ROCK2). Typically, dose response analyses were performed over concentration ranges from 0.005 - 100 μM. Reactions were stopped by adding 2 assay volumes of 0.25% (v/v) IMAP binding reagent in 1× IMAP binding buffer A (Molecular Devices). After 30 min incubation to allow binding reagent to bind phosphorylated peptide, fluorescence polarization was measured on a Tecan Saphire^2 plate reader at excitation (470 nm) and emission (530 nm) wavelengths. Inhibition was calculated using no inhibitor and no enzyme controls as 0 and 100% inhibition, respectively.

Series [3] in a line: Caco-2 permeability. In kind it is in vitro ADME. Conditions: human.
The target in series [4] is ROCK2 (Homo sapiens, UniProt O75116). The series can be described thus: IMAP fluorescence polarization kinase assay, ROCK2. In kind it is biochemical. Also on record: purchased Life Technologies. The conditions noted are these: in vitro, 1 μM ATP. The method, then:
as §1

The target of series [5] is T1, ROCK1 (Homo sapiens, UniProt Q13464). The experiment in a line: IMAP fluorescence polarization kinase assay, ROCK1. More on the design: purchased Life Technologies. The conditions noted are these: in vitro, 1 μM ATP. It is filed as biochemical. As to the method:
as §1
(Fluorescence polarisation rises when a labelled molecule tumbles more slowly, as on binding a larger partner.)
Target sequence in this assay (Q13464 whole entry): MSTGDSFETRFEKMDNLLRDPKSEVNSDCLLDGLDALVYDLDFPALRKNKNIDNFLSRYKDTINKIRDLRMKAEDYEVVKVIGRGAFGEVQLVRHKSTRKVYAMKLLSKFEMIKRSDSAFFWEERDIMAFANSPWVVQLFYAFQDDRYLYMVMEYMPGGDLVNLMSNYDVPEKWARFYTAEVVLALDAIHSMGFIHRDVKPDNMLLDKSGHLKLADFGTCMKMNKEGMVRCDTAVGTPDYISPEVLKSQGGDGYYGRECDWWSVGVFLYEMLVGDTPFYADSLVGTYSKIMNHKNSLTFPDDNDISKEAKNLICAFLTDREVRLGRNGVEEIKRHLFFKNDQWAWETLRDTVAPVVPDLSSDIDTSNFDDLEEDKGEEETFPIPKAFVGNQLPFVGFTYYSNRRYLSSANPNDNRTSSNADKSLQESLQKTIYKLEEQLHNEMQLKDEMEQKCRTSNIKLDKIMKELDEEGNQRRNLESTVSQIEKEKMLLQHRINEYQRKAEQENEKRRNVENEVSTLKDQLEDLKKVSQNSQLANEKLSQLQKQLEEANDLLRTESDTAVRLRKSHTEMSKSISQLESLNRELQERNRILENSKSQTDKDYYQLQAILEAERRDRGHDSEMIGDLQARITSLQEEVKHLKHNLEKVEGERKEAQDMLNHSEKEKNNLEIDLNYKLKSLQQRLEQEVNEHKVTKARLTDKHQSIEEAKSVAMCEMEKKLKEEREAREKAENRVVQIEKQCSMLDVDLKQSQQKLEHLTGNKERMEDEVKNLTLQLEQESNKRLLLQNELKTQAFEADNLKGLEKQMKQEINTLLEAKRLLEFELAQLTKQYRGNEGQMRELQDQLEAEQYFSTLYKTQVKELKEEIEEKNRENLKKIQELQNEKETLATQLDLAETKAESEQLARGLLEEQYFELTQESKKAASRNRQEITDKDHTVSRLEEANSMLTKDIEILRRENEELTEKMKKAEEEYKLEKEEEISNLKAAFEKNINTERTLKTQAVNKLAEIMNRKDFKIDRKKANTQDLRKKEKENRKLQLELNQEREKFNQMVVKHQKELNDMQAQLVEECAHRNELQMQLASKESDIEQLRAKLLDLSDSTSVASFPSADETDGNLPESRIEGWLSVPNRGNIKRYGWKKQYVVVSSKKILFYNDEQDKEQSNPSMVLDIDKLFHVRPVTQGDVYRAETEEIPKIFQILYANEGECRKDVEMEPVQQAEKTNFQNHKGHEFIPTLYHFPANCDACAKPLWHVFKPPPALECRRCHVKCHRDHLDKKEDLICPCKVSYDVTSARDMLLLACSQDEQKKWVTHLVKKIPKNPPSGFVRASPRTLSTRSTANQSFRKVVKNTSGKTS

The target in series [6] is T1, ROCK1. The experiment in a line: MLC phosphorylation in MDA-MB-231 cells expressing doxycycline-induced ROCK1 kinase domain (quantitative western blot). The conditions noted are these: doxycycline-induced MDA-MB-231, 60 minutes treatment; read-out: cell based EC50, MLC phosphorylation induced by ROCK1. More on the design: The kinase domains of MRCKβ (1–473), ROCK1 (1–535) or ROCK2 (1–532) were gene synthesized; expressed in transfected cells; host or cells: MDA-MB-231 D3H2LN-Luc Tet3G cells, pTRE3G-ROCK1 (1–535). The method, then:
(A) MDA-MB-231 breast cancer cells expressing doxycycline inducible ROCK1, ROCK2 or MRCKβ kinase domains were established as indicated. Following treatment with doxycycline for 18 hours to induce expression, cell lysates were western blotted with antibodies as indicated. […] All results are shown as mean ± standard error of n = 4 independent replicates.
MDA-MB-231 D3H2LN-Luc cells (Caliper LifeScience) were grown in MEM/EBSS (Hyclone) supplemented with 10% fetal bovine serum (FBS) (Gibco), 1 mM Sodium Pyruvate (Sigma) 2 mM L-glutamine (Gibco), 1× MEM non-essential amino acids (Gibco) plus penicillin-streptomycin (10 Units/ml and 10 μg/ml respectively) at 37°C in 5% CO2 in a humidified incubator. MDA-MB-231 D3H2LN-Luc TetOn MRCKβ, ROCK1 and ROCK2 selective cell lines were grown in the same media with 10% FBS replaced with 10% Tet System Approved FBS (Clontech).
The kinase domains of MRCKβ (1–473), ROCK1 (1–535) or ROCK2 (1–532) were gene synthesized (Genscript) and subcloned into pTRE3G (Clontech). MDA-MB-231 D3H2LN-Luc Tet3G cells were co-transfected with pTRE3G-MRCKβ (1–473), pTRE3G-ROCK1 (1–535) or pTRE3G-ROCK2 (1–532), together with a linear Pur^r-selection marker using Xfect transfection reagent according to manufacturer’s instructions. […] Each clone was treated with or without doxycycline (1 μg/ml) for 24 hours and kinase domain expression and activity determined by western blotting. […]
Background: In western blotting, separated proteins are transferred to a membrane and probed.
Target sequence in this assay (Q13464 1-535): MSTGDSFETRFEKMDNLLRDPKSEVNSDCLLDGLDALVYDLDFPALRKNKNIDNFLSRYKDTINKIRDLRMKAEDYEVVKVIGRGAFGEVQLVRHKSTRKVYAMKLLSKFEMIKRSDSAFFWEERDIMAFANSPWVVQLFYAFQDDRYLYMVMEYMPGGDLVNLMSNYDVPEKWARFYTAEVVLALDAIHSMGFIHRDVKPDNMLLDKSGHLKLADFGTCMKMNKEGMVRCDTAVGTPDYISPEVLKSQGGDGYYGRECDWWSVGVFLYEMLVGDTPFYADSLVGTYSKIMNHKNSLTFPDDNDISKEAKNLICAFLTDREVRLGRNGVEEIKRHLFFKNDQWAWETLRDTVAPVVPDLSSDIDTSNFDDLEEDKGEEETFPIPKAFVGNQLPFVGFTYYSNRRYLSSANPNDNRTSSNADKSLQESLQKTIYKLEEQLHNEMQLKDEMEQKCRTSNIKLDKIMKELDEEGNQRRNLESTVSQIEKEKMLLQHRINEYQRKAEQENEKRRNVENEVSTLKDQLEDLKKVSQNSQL

Series [7] addresses T2, MRCKβ (Homo sapiens, UniProt Q9Y5S2).
T2 construct: purchased Life Technologies
The series can be described thus: IMAP fluorescence polarization kinase assay, MRCKβ. In kind it is biochemical. Conditions: in vitro, 1 μM ATP. As to the method:
as §1

For series [8], the system named is MLC phosphorylation in SCC12 cells. The series can be described thus: MLC phosphorylation in SCC12 squamous cell carcinoma cells (quantitative western blot). It is filed as cell-based, human. The method, then:
All results are shown as mean ± standard error of n = 3 independent replicates. […] Readings were compared to the Alamar Blue metabolism in DMSO treated cells that were used as the viability standard of 100% for each replicate experiment. […] (F) Number of invading cells was determined in 5 random fields for each condition for each separate replicate experiment. All results are shown as mean ± standard error of n ≥ 3 independent replicates.
Cell lysates were prepared as described previously. For pMLC western blots, cells were lysed in a 1% (w/v) SDS, 50 mM Tris pH 7.5 buffer and lysates were passed through QIAshredder columns (Qiagen, 79654). Alternatively, for pMLC western blots lysates were prepared in lysis buffer with 50 mM Tris (pH7.5), 0.5% (w/v) SDS, supplemented with Complete Protease and PhosSTOP inhibitors (Roche). Whole cell lysates were separated by SDS-PAGE, transferred to Protran nitrocellulose membranes (Whatman), probed with primary antibodies and appropriate IR dye-conjugated secondary antibodies. Blots were visualized using a Licor Odyssey according to manufacturer’s instructions. […]

The structures appear in SMILES notation.

Chain of MRCKα (Q5VT25 whole entry): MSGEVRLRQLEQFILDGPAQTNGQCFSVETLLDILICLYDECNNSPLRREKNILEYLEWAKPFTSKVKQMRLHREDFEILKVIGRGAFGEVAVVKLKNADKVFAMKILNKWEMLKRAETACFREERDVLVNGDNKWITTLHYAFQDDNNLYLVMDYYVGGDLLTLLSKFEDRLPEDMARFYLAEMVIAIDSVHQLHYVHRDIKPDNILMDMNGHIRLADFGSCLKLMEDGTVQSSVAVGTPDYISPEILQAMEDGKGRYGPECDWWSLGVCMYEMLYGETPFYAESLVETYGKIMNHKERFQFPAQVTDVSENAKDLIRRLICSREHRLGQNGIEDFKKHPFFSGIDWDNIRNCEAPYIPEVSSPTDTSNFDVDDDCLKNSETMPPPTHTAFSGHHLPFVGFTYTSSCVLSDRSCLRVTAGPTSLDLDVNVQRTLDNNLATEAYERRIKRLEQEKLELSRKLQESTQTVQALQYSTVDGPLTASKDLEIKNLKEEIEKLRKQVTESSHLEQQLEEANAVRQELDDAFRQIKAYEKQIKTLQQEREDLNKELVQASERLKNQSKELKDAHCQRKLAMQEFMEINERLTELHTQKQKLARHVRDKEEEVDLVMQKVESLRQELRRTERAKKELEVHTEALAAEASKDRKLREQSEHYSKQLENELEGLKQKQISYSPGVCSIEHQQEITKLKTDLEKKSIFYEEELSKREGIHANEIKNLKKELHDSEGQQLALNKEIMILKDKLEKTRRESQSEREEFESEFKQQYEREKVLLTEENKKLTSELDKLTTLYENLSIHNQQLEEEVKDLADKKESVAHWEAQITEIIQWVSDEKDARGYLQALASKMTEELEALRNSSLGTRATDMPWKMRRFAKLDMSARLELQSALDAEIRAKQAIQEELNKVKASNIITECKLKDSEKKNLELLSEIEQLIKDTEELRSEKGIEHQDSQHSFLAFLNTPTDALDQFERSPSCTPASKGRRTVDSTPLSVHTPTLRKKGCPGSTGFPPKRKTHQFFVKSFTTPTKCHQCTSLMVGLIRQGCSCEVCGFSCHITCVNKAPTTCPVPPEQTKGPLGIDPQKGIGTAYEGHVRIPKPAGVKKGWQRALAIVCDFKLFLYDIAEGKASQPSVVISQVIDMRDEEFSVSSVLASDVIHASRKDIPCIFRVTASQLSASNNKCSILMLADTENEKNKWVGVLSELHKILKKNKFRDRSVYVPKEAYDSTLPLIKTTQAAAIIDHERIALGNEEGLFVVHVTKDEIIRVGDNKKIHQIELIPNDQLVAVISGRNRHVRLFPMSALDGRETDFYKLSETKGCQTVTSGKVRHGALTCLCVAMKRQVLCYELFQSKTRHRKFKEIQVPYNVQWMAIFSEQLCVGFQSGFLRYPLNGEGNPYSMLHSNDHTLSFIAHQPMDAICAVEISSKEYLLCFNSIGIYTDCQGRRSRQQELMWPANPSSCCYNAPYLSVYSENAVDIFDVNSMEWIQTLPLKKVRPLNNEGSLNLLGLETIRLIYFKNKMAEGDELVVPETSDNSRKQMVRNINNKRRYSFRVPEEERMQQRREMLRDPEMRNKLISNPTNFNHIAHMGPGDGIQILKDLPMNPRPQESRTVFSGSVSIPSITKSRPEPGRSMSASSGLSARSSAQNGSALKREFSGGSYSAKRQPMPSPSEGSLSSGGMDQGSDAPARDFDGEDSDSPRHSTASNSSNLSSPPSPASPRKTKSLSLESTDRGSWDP
Chain of ROCK2 (O75116 whole entry): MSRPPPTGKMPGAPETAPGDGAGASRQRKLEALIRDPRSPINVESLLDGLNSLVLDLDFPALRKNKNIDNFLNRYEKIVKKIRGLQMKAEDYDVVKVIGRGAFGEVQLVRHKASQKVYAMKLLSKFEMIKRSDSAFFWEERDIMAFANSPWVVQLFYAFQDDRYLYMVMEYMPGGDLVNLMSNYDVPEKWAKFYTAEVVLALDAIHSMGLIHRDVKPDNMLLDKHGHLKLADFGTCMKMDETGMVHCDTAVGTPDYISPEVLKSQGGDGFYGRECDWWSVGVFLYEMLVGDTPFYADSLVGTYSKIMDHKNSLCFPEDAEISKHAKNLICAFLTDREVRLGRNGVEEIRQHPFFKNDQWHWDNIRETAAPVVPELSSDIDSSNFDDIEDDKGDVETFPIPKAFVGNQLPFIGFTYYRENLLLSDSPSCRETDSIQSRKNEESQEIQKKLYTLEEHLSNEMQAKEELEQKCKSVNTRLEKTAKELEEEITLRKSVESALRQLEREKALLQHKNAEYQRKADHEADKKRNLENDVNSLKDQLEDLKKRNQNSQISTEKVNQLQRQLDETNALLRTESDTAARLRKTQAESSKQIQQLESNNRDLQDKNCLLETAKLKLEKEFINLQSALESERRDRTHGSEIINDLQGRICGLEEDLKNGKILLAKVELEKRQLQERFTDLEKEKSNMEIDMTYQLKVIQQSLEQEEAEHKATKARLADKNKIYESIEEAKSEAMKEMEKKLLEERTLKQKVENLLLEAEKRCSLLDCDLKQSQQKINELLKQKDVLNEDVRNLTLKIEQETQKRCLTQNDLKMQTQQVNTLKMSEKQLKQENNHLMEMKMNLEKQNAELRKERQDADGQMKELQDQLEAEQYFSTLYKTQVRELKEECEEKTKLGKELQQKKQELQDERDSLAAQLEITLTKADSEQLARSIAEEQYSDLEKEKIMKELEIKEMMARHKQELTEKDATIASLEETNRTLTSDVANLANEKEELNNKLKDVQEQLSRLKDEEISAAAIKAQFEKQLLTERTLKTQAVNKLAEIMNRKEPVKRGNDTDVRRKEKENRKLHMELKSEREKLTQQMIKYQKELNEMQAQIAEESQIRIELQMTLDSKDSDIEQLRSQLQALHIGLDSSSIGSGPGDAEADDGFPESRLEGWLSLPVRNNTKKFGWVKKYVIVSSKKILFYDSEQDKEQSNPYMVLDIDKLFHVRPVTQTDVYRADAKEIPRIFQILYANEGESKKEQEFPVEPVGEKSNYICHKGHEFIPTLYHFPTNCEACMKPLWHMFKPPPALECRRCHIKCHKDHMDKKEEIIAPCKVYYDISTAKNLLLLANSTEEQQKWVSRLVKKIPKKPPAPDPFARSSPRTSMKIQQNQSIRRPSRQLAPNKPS

`O=C(Nc1cn[nH]c1-c1ccccn1)c1nn(C2CCNCC2)cc1Cl` [BDP5290, 4-chloro-1-(4-piperidyl)-N-[5-(2-pyridyl)-1H-pyrazol-4-yl]pyrazole-3-carboxamide] came in with a logD in series [1] of 0.786. Further, the inhibition constant (Ki) in series [2] is 10 nM. The compound further had a Papp in series [3] of 0.171 ×10⁻⁶ cm/s. For the same compound, the IC50 in series [4] worked out at 123 nM; in series [5], 230 nM. In addition, the EC50 in series [6] stood at 501 nM.

Consider `C[C@@H](N)[C@H]1CC[C@H](C(=O)Nc2ccncc2)CC1` [Y27632, reference compound], for which the IC50 in series [7] was 1450 nM. In addition, in series [8], the “phosphorylated MLC at higher doses in SCC12 cells” value is “residual phosphorylated MLC”.

The record behind these values is PMC4195943, “A novel small-molecule MRCK inhibitor blocks cancer cell invasion” (Cell Communication and Signaling : CCS, 2014).
